Data taken from patent US12559494B2, “Functionalized lactams as modulators of the 5-hydroxytryptamine receptor 7 and their method of use” (Temple University - Of The Commonwealth System of Higher …, priority 2018, dated 2026).
Counter-ions that a name gives are not always drawn.

biological target: T1, 5HT7 receptors (Homo sapiens, UniProt P34969); assay: Functional data (Kb), HitHunter cAMP enzyme fragment complementation assay with 5-HT as agonist; format: cell-based; design: expressed in transfected cells; G418 selection); details: Table 35, scaffold drawing 615; antagonist mode vs 5-HT; read-out: Kb
T1 sequence (P34969 whole entry, the tested form may be a part): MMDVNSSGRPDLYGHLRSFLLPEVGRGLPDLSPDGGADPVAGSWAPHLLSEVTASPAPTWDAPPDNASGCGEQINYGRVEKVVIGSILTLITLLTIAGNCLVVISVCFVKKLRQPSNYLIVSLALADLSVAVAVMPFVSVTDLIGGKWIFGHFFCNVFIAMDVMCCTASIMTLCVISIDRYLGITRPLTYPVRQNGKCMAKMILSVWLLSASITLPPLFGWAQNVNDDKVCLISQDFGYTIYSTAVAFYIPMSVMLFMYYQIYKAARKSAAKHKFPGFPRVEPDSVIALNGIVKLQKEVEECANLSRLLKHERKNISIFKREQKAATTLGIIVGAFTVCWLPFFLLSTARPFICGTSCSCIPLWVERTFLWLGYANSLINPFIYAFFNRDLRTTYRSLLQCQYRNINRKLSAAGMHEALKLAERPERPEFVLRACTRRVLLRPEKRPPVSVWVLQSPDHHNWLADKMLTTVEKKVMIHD
Procedure: Functional efficacy of the compounds of the disclosure on 5-HT7 serotonin receptors were measured in a cell based cAMP enzyme fragment complementation assay using the HitHunter cAMP assay (DiscoveRx). Cells stably expressing human 5HT7 receptors were plated in 96-well plates at 4000 cells/well, 16-20 hours prior to assay in growth media (Ultraculture medium, 2 mM GlutaMax and G418 1 mg/mL. Serial dilutions of the agonist, 5-hydroxytryptamine (5-HT), were prepared in a final concentration range of 10 μM to 10 nM. Compounds of the disclosure were prepared in 3-fold serial dilutions to obtain a final concentration range of 10 μM to 0.1 nM. Compounds of the disclosure are tested for agonist activity in the absence of 5-HT and antagonist activity in the presence of 5-HT. For the cAMP assay, the protocol was followed according to the instructions provided by the supplier. Briefly, cells were incubated with a compound of the disclosure for 30 minutes at 37° C. prior to addition of EC70 concentration of 5-HT. After an additional 30 minutes, cAMP antibody/cell lysis solution was added (20 μL/well) and incubated for 60 minutes at room temperature. cAMP XS+EA reagent is added (20 μL/well) and incubated for 2 hours at room temperature. Luminescence was read on the Envision Multilabel plate reader.

With `CCC1(CC)C[C@H](CCN2CCN(c3ccccc3OC)CC2)NC1=O` [(R)-3,3-diethyl-5-(2-(4-(2-methoxyphenyl)piperazin-1-yl)ethyl)pyrrolidin-2-one] as the compound, how does the Kb read?
The Kb was 230 nM.

With `CCC1(CC)C[C@H](CCN2CCN(c3ccc(C(F)(F)F)cc3)CC2)NC1=O` [(R)-3,3-diethyl-5-(2-(4-(4-(trifluoromethyl)phenyl)piperazin-1-yl)ethyl)pyrrolidin-2-one] as the compound, how does the Kb read?
Its Kb is 137 nM.

How did the Kb turn out when `CCC1(CC)C[C@H](CCN2CCN(c3ccccn3)CC2)NC1=O` [(R)-3,3-diethyl-5-(2-(4-(pyridin-2-yl)piperazin-1-yl)ethyl)pyrrolidin-2-one] was run?
Its Kb is 4.91 nM.

Which Kb does the source give for `CCC1(CC)C[C@H](CCN2CCN(c3ccc(C#N)cc3)CC2)NC1=O` [(R)-4-(4-(2-(4,4-diethyl-5-oxopyrrolidin-2-yl)ethyl)piperazin-1-yl)benzonitrile] here?
The Kb was 544 nM.

For `CCC1(CC)C[C@H](CCN2CCN(c3ccccc3Cl)CC2)NC1=O` [(R)-5-(2-(4-(2-chlorophenyl)piperazin-1-yl)ethyl)-3,3-diethylpyrrolidin-2-one], which Kb is on record?
The Kb was 109 nM.

For `CCC1(CC)C[C@H](CCN2CCN(c3ccccc3C)CC2)NC1=O` [(R)-5-(2-(4-(2-methylphenyl)piperazin-1-yl)ethyl)-3,3-diethylpyrrolidin-2-one], which Kb is on record?
Its Kb is 127 nM.

Which Kb does the source give for `CCC1(CC)C[C@H](CCN2CCN(c3cccc(F)c3)CC2)NC1=O` [(R)-5-(2-(4-(3-fluorophenyl)piperazin-1-yl)ethyl)-3,3-diethylpyrrolidin-2-one] here?
Its Kb is 9.89 nM.

How did the Kb turn out when `CCC1(CC)C[C@H](CCN2CCN(c3cccc(C)c3)CC2)NC1=O` [(R)-5-(2-(4-(3-methylphenyl)piperazin-1-yl)ethyl)-3,3-diethylpyrrolidin-2-one] was run?
The Kb was 1.65 nM.

With `CCC1(CC)C[C@H](CCN2CCN(c3ccccc3)CC2)NC1=O` [drawing 615 n=2 R1=Ethyl R2=Ethyl R3=Phenyl, (R)-3,3-diethyl-5-(2-(4-phenylpiperazin-1-yl)ethyl)pyrrolidin-2-one] as the compound, how does the Kb read?
Its Kb is 6.59 nM.

same assay, conditions: Table 36, scaffold drawing 616; antagonist mode vs 5-HT; read-out: Kb

For `O=C1N[C@H](CCN2CCN(c3cccc(Cl)c3)CC2)CC12CC=CC2` [(S)-3-(2-(4-(3-chlorophenyl)piperazin-1-yl)ethyl)-2-azaspiro[4.4]non-7-en-1-one], which Kb is on record?
The Kb was 36.3 nM.

`O=C1N[C@H](CCN2CCN(c3cccc(Cl)c3)CC2)CC12CCCC2` [(S)-3-(2-(4-(3-chlorophenyl)piperazin-1-yl)ethyl)-2-azaspiro[4.4]nonan-1-one] was tested. Which Kb did it give?
The Kb was 48.4 nM.

For `O=C1N[C@H](CCN2CCN(c3ccc(F)cc3)CC2)CC12CC=CC2` [(S)-3-(2-(4-(4-fluorophenyl)piperazin-1-yl)ethyl)-2-azaspiro[4.4]non-7-en-1-one], which Kb is on record?
The Kb was 46.2 nM.

Which Kb does the source give for `O=C1N[C@H](CCN2CCN(c3ccc(F)cc3)CC2)CC12CCCC2` [(S)-3-(2-(4-(4-fluorophenyl)piperazin-1-yl)ethyl)-2-azaspiro[4.4]nonan-1-one] here?
Its Kb is 52.6 nM.

same assay, conditions: Table 37, scaffold drawing 617; antagonist mode vs 5-HT; read-out: Kb

`CS(=O)(=O)N1CCC2(CC1)C[C@H](CCCN1CCN(c3cccc(Cl)c3)CC1)NC2=O` [drawing 617 n=3 R3=3-Cl-Phenyl R7=MeSO2, (S)-3-(3-(4-(3-chlorophenyl)piperazin-1-yl)propyl)-8-(methylsulfonyl)-2,8-diazaspiro[4.5]decan-1-one] was tested. Which Kb did it give?
The Kb was 321 nM.

How did the Kb turn out when `CS(=O)(=O)N1CCC2(CC1)C[C@H](CCCN1CCN(c3ccc(F)cc3)CC1)NC2=O` [drawing 617 n=3 R3=4-F-Phenyl R7=MeSO2, (S)-3-(3-(4-(4-fluorophenyl)piperazin-1-yl)propyl)-8-(methylsulfonyl)-2,8-diazaspiro[4.5]decan-1-one] was run?
The Kb was 526 nM.

same assay, conditions: Table 39, scaffold drawing 619; antagonist mode vs 5-HT; read-out: Kb

Which Kb does the source give for `CCC1(CC)C[C@H](CCN2CC3CN(c4ccccc4)CC3C2)NC1=O` (stereo partly drawn) [drawing 619 n=2 R1=Ethyl R2=Ethyl R3=Phenyl, (5R)-3,3-diethyl-5-(2-(5-phenylhexahydropyrrolo[3,4-c]pyrrol-2(1H)-yl)ethyl)pyrrolidin-2-one] here?
The Kb was 144 nM.

same assay, conditions: cAMP assay, cells stably expressing human 5HT7 receptors, antagonist activity in the presence of EC70 5-HT; read-out: Kb (nM)^2

`CCC1(CC)CC(CCN2CCN(c3ccccc3C(C)C)CC2)NC1=O` (stereo not shown) [3,3-diethyl-5-(2-(4-(2-isopropylphenyl)piperazin-1-yl)ethyl)pyrrolidin-2-one] was tested. Which Kb did it give?
The Kb was 163 nM.

With `CCC1(CC)CC(CCN2CCN(c3ccccc3N3CCOCC3)CC2)NC1=O` (stereo not shown) [3,3-diethyl-5-(2-(4-(2-morpholinophenyl)piperazin-1-yl)ethyl)pyrrolidin-2-one] as the compound, how does the Kb read?
The Kb was 32.3 nM.

How did the Kb turn out when `CCC1(CC)CC(CCN2CCN(c3ccc(F)cc3)CC2)NC1=O` (stereo not shown) [3,3-diethyl-5-(2-(4-(4-fluorophenyl)piperazin-1-yl)ethyl)pyrrolidin-2-one] was run?
The Kb was 8.98 nM.

With `CCC1(CC)CC(CCN2CCN(c3ccc(O)cc3)CC2)NC1=O` (stereo not shown) [3,3-diethyl-5-(2-(4-(4-hydroxyphenyl)piperazin-1-yl)ethyl)pyrrolidin-2-one] as the compound, how does the Kb read?
Its Kb is 50 nM.

How did the Kb turn out when `CS(=O)(=O)N1CCC2(CC1)C[C@@H](CCN1CCN(c3ccc(F)cc3)CC1)NC2=O` [drawing 618; n=2; R3=4-F-Phenyl; R7=MeSO2, (S)-3-(2-(4-(4-fluorophenyl)piperazin-1-yl)ethyl)-8-(methylsulfonyl)-2,8-diazaspiro[4.5]decan-1-one] was run?
Its Kb is 74.2 nM.

biological target: T1, 5HT7 receptors; assay: Radiolabeled binding (IC50 and Ki), [3H]LSD competition on membranes of cells expressing recombinant 5HT7 receptors; design: expressed in transfected cells; details: Table 35, scaffold drawing 615
Procedure: Radiolabel Binding Studies for Serotonin 5HT7 Receptors, Method 1:
(§1) A solution of the compound of the disclosure to be tested is prepared as a 1-mg/ml stock in Assay Buffer or DMSO according to its solubility. A similar stock of the reference compound chlorpromazine is also prepared as a positive control. Eleven dilutions (5×assay concentration) of the compound of the disclosure and chlorpromazine are prepared in the Assay Buffer by serial dilution to yield final corresponding assay concentrations ranging from 10 pM to 10 μM.
A stock concentration of 5 nM [^3H]LSD (lysergic acid diethyl amide) is prepared in 50 mM Tris-HCl, 10 mM MgCl2, 1 mM EDTA, pH 7.4 (Assay Buffer). Aliquots (50 μl) of radioligand are dispensed into the wells of a 96-well plate containing 100 μl of Assay Buffer. Duplicate 50-μl aliquots of the compound of the disclosure test and chlorpromazine positive control reference compound serial dilutions are added.
Membrane fractions of cells expressing recombinant 5HT7 receptors (50 μL) are dispensed into each well. The membranes are prepared from stably transfected cell lines expressing 5HT7 receptors cultured on 10-cm plates by harvesting PBS-rinsed monolayers, resuspending and lysing in chilled, hypotonic 50 mM Tris-HCl, pH 7.4, centrifuging at 20,000×g, decanting the supernatant and storing at −80° C.; the membrane preparations are resuspended in 3 ml of chilled Assay Buffer and homogenized by several passages through a 26 gauge needle before using in the assay.
The 250-μl reactions are incubated at room temperature for 1.5 hours, then harvested by rapid filtration onto 0.3% polyethyleneimine-treated, 96-well filter mats using a 96-well Filtermate harvester. Four rapid 500-μl washes are performed with chilled Assay Buffer to reduce non-specific binding. The filter mats are dried, then scintillant is added to the filters and the radioactivity retained on the filters is counted in a Microbeta scintillation counter.
Raw data (dpm) representing total radioligand binding (i.e., specific+non-specific binding) are plotted as a function of the logarithm of the molar concentration of the competitor (i.e., test or reference compound). Non-linear regression of the normalized (i.e., percent radioligand binding compared to that observed in the absence of test or reference compound) raw data is performed in Prism 4.0 (GraphPad Software) using the built-in three parameter logistic model describing ligand competition binding to radioligand-labeled sites: y=bottom+[(top-bottom)/(1+10×−logIC50)] where bottom equals the residual radioligand binding measured in the presence of 10 μM reference compound (i.e., non-specific binding) and top equals the total radioligand binding observed in the absence of competitor. The log IC50 (i.e., the log of the ligand concentration that reduces radioligand binding by 50%) is thus estimated from the data and used to obtain the Ki by applying the Cheng-Prusoff approximation: Ki=IC50/(1+[ligand]/KD) • where [ligand] equals the assay radioligand concentration and KD equals the affinity constant of the radioligand for the target receptor.
^1Radiolabeled Binding (IC50 and K1)
as §1, with “tested was” for “tested is”, “chlorpromazine was” for “chlorpromazine is”, “dilutions (5× assay” for “dilutions (5×assay”, “chlorpromazine were” for “chlorpromazine are”, “[…]” for “10 pM”
A stock concentration of 5 nM [^3H]LSD (lysergic acid diethyl amide) was prepared in 50 mM Tris-HCl, 10 mM MgCl2, 1 mM EDTA, pH 7.4 (Assay Buffer). Aliquots (50 μl) of radioligand were dispensed into the wells of a 96-well plate containing 100 μl of Assay Buffer. […]

`CCC1(CC)C[C@H](CN2CCN(c3ccccc3C(C)C)CC2)NC1=O` [(R)-3,3-diethyl-5-((4-(2-isopropylphenyl)piperazin-1-yl)methyl)pyrrolidin-2-one formate] was tested. Which Ki did it give?
The Ki was 121 nM.

With `CCC1(CC)C[C@H](CN2CCN(c3ccc(F)cc3)CC2)NC1=O` [(R)-3,3-diethyl-5-((4-(4-fluorophenyl)piperazin-1-yl)methyl)pyrrolidin-2-one formate] as the compound, how does the Ki read?
Its Ki is 243 nM.

With `CCC1(CC)C[C@H](CN2CCN(c3ccc(C)cc3)CC2)NC1=O` [(R)-3,3-diethyl-5-((4-(p-tolyl)piperazin-1-yl)methyl)pyrrolidin-2-one formate] as the compound, how does the Ki read?
The Ki was 249 nM.

Which Ki does the source give for `CCC1(CC)C[C@H](CN2CCN(c3ccccn3)CC2)NC1=O` [(R)-3,3-diethyl-5-((4-(pyridin-2-yl)piperazin-1-yl)methyl)pyrrolidin-2-one formate] here?
Its Ki is 669 nM.

How did the Ki turn out when `CCC1(CC)C[C@H](CN2CCN(c3cccc(Cl)c3)CC2)NC1=O` [(R)-5-((4-(3-chlorophenyl)piperazin-1-yl)methyl)-3,3-diethylpyrrolidin-2-one] was run?
The Ki was 1090 nM.

With `CCC1(CC)C[C@H](CN2CCN(c3ccccc3)CC2)NC1=O` [drawing 615 n=1 R1=Ethyl R2=Ethyl R3=Phenyl, (R)-3,3-diethyl-5-((4-phenylpiperazin-1-yl)methyl)pyrrolidin-2-one formate] as the compound, how does the Ki read?
The Ki was 819 nM.

same assay, conditions: [3H]LSD radioligand, membranes of cells expressing recombinant 5HT7 receptors; read-out: IC50 (nM)^1

With `CCC1(CC)CC(CCN2CCN(c3ccccc3C(C)C)CC2)NC1=O` (stereo not shown) [3,3-diethyl-5-(2-(4-(2-isopropylphenyl)piperazin-1-yl)ethyl)pyrrolidin-2-one] as the compound, how does the IC50 read?
Its IC50 is 23 nM.

`CCC1(CC)CC(CCN2CCN(c3ccccc3N3CCOCC3)CC2)NC1=O` (stereo not shown) [3,3-diethyl-5-(2-(4-(2-morpholinophenyl)piperazin-1-yl)ethyl)pyrrolidin-2-one] was tested. Which IC50 did it give?
The IC50 was 24 nM.

With `CCC1(CC)CC(CCN2CCN(c3ccc(F)cc3)CC2)NC1=O` (stereo not shown) [3,3-diethyl-5-(2-(4-(4-fluorophenyl)piperazin-1-yl)ethyl)pyrrolidin-2-one] as the compound, how does the IC50 read?
Its IC50 is 8.5 nM.

With `CCC1(CC)CC(CCN2CCN(c3ccc(O)cc3)CC2)NC1=O` (stereo not shown) [3,3-diethyl-5-(2-(4-(4-hydroxyphenyl)piperazin-1-yl)ethyl)pyrrolidin-2-one] as the compound, how does the IC50 read?
The IC50 was 34 nM.
